“Also recorded” adds a separate entry of the source.
Key:
[1] = molecular target: T1, C-terminal domain of sEH (sEH-H) (Homo sapiens, UniProt P34913); test: Differential scanning fluorimetry; format: binding; conditions: inhibitor 50 μM
T1 sequence (P34913 235-555 limits assumed): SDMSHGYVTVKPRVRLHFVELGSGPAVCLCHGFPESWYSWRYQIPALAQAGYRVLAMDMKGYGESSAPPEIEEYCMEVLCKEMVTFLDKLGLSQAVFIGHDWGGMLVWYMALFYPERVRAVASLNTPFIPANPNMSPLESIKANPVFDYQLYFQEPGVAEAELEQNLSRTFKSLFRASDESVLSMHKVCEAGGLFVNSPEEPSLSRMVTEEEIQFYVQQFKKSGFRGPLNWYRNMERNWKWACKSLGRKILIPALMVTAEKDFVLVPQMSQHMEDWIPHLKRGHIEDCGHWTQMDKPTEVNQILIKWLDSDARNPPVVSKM

LXRα = molecular target: T2, LXRα (Homo sapiens, UniProt Q13133); test: Gal4 hybrid reporter gene assay in HEK293T cells; format: cell-based; conditions: at 10 μM; reference T0901317 1 μM
T2 sequence (Q13133 209-447 limits assumed): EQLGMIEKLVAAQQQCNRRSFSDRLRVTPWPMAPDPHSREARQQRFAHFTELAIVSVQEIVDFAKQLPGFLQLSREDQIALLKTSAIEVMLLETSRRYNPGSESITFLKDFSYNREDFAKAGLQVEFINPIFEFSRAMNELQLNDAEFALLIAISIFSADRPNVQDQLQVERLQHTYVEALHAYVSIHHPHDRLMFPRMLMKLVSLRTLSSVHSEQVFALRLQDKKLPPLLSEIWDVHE

PPARα = molecular target: T3, PPARα (Homo sapiens, UniProt Q07869); test: Gal4 hybrid reporter gene assay in HEK293T cells; format: cell-based; conditions: at 10 μM; reference GW7647 1 μM
T3 sequence (Q07869 239-466 limits assumed): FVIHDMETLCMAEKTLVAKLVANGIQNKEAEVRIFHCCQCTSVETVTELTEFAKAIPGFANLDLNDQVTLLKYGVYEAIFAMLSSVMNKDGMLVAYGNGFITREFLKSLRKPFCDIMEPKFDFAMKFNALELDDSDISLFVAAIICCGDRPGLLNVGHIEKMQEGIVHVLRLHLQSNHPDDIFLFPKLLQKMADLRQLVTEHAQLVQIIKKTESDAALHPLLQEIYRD

[2] = molecular target: T4, N-terminal domain of sEH (sEH-P) (Homo sapiens, UniProt P34913); test: Differential scanning fluorimetry; format: binding; conditions: inhibitor 50 μM
T4 sequence (P34913 2-224): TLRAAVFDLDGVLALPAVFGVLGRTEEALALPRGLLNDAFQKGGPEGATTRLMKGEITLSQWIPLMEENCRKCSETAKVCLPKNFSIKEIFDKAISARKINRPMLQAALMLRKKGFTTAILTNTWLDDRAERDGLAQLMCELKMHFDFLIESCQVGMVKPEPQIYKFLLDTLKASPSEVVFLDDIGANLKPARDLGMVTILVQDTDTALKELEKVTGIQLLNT

LXRβ = molecular target: T5, LXRβ (Homo sapiens, UniProt P55055); test: Gal4 hybrid reporter gene assay in HEK293T cells; format: cell-based; conditions: at 10 μM; reference T0901317 1 μM
T5 sequence (P55055 222-460 limits assumed): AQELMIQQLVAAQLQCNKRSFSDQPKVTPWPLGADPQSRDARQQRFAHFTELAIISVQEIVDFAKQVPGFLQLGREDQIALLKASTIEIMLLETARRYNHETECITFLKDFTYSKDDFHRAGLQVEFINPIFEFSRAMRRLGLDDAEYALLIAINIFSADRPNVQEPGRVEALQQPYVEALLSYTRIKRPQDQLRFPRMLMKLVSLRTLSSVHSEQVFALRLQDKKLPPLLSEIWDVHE

FXR = molecular target: T6, FXR (Homo sapiens, UniProt Q96RI1); test: Gal4 hybrid reporter gene assay in HEK293T cells; format: cell-based; conditions: at 10 μM; reference GW4064 1 μM
T6 sequence (Q96RI1 262-486 limits assumed): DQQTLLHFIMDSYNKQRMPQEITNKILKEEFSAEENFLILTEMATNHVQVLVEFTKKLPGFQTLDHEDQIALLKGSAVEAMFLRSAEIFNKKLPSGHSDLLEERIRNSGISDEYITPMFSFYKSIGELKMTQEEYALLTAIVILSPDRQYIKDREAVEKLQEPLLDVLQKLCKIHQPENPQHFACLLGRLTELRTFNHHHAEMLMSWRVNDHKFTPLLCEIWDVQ

[3] = molecular target: T7, recombinant sEH-P domain (N-terminal domain of sEH) (Homo sapiens, UniProt P34913); test: FDP-based phosphatase assay, isolated sEH-P domain; format: biochemical; conditions: FDP substrate, recombinant sEH-P domain
T7 sequence (P34913 1-222): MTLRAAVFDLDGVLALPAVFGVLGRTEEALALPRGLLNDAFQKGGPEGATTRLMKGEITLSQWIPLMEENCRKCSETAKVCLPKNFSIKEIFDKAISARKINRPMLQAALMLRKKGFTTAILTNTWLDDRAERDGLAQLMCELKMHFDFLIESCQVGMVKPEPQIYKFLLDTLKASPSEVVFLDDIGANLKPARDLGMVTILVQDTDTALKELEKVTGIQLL

[4] = molecular target: T8, isolated N-terminal domain of sEH (sEH-P) (Homo sapiens, UniProt P34913); test: DiFMUP-based phosphatase assay, isolated N-terminal domain; conditions: DiFMUP substrate
T8 sequence (P34913 1-222): T7 sequence (P34913 1-222)

sEH-H = test: Epoxy fatty acid/diol ratios in rat plasma by LC-MS/MS; format: in vivo; conditions: rat plasma 8 h after 30 mg/kg p.o., vs vehicle
[5] = molecular target: T9, human fl sEH (sEH-H activity) (Homo sapiens, UniProt P34913); test: PHOME-based hydrolase assay, full-length human sEH; format: biochemical
T9 sequence (P34913 1-555): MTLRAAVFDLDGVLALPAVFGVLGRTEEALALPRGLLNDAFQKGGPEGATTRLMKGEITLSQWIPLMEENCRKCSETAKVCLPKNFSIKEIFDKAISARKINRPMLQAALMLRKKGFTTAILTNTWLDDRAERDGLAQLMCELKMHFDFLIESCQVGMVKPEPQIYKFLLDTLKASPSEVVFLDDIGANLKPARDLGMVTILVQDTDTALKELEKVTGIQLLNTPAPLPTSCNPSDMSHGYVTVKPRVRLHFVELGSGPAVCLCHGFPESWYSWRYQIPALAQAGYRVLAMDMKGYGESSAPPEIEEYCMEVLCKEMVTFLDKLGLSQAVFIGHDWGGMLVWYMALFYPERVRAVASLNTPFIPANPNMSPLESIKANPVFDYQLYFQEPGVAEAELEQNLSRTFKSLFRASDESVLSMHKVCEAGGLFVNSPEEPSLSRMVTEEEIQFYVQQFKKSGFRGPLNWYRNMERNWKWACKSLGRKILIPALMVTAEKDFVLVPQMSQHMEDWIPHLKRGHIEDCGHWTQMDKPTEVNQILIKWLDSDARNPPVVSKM

PPARβ/δ = molecular target: T10, PPARβ/δ (Homo sapiens, UniProt Q03181); test: Gal4 hybrid reporter gene assay in HEK293T cells; format: cell-based; conditions: at 10 μM; reference L165,041 1 μM
T10 sequence (Q03181 211-439 limits assumed): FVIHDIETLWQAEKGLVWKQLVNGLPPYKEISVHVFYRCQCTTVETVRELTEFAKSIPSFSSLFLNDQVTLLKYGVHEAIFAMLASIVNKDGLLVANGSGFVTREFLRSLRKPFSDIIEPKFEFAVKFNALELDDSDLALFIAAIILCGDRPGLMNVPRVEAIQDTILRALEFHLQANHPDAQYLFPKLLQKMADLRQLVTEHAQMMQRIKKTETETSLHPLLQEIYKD

full-length human sEH = molecular target: T11, full-length human sEH (Homo sapiens, UniProt P34913); test: DiFMUP-based phosphatase assay, full-length sEH; conditions: DiFMUP substrate
T11 sequence (P34913 1-555): T9 sequence (P34913 1-555)

[6] = Pharmacokinetic study in male Sprague-Dawley rats; format: in vivo, rat; conditions: 30 mg/kg p.o., male SD rats
PPARγ = molecular target: T12, PPARγ (Homo sapiens, UniProt P37231); test: Gal4 hybrid reporter gene assay in HEK293T cells; format: cell-based; conditions: at 10 μM; reference pioglitazone 1 μM
T12 sequence (P37231 238-503 limits assumed): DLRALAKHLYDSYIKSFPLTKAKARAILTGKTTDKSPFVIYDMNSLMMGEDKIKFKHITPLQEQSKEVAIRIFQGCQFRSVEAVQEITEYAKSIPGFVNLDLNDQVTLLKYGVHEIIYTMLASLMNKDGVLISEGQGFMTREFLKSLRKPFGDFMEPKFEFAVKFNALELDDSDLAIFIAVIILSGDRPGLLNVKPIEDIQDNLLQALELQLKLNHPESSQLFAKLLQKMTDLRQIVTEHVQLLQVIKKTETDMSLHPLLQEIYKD

PPARγ transactivation of the reference agonist (PPARγ) | Compound | stabilization of the C-terminal domain in DSF [1] | LXRα transactivation of the reference agonist (LXRα) | PPARα transactivation of the reference agonist (PPARα) | stabilization of the N-terminal domain in DSF [2] | LXRβ transactivation of the reference agonist (LXRβ) | FXR transactivation of the reference agonist (FXR) | inhibitory potency toward sEH-P (SAR statement in words) [3] | mode of inhibition [4] | ratio of main epoxy fatty acids to their respective diols (sEH-H) | IC50 [5] | PPARβ/δ transactivation of the reference agonist (PPARβ/δ) | mode of inhibition (full-length human sEH) | maximum plasma concentration [6]
– | O=C(O)CCCc1nc(-c2ccc(Cl)c(Cl)c2)c(-c2ccccc2)o1 [22b, 4-(4-(3,4-Dichlorophenyl)-5-phenyloxazol-2-yl)butanoic Acid] | did not stabilize | inactive at 10 μM | inactive at 10 μM | stabilized; also recorded: able to stabilize | inactive at 10 μM | inactive at 10 μM | further improved the inhibitory activity | competitive inhibitor | did not influence | ~9 µM | inactive at 10 μM | competitive inhibitor | 48 µg/mL
inactive at 10 μM | O=C(O)CCc1nc(-c2ccccc2)c(-c2ccccc2)o1 [compound 5, oxaprozin, reference compound] | – | inactive at 10 μM | inactive at 10 μM | – | inactive at 10 μM | – | – | – | – | – | inactive at 10 μM | – | –
